Positions count from the first letter of the chain named.
Assays:
Test in all cases: Mutant β-galactosidase activity in model cells, 4 days culture
Type in all cases: cell-based
[1] = molecular target: T1, human mutant β-galactosidase R201C (Homo sapiens, UniProt P16278, R201C)
T1 construct: from tissue
T1 sequence (P16278 29-677 R201C): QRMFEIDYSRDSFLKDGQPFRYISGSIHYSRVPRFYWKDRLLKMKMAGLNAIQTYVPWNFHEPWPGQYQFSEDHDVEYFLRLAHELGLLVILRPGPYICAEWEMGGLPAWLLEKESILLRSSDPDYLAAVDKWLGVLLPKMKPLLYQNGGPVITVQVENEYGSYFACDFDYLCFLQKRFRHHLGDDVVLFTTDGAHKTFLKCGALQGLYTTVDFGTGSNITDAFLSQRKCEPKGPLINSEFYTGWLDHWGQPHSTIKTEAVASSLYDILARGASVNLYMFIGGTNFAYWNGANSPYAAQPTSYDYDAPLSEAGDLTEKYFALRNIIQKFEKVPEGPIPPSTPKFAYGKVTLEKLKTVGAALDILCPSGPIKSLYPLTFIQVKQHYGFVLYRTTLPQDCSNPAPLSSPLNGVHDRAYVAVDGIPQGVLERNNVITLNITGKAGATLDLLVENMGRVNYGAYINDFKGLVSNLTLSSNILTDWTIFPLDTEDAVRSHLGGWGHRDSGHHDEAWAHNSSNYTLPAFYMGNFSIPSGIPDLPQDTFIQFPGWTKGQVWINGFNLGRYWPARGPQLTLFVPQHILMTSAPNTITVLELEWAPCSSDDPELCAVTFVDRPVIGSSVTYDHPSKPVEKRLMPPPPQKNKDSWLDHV
Excerpt: (§1) Cultured skin fibroblasts of a β-galactosidase-deficient knockout mouse was immortalized by introducing an SV40 viral gene, and enzyme genes integrated into pSV2neo and an expression vector were also introduced simultaneously, thereby establishing a model cell (Brain Dev., 23(5), 284-287, 2001). The genes used are human normal (GP8) and mutant β-galactosidase gene Y316C, G123R (infantile GM1-gangliosidosis), R201C (juvenile GM1-gangliosidosis), 151T, T82M, R201H, R263S, R457Q (adult GM1-gangliosidosis), W273L, Y83H, R482H and R482C (Morquio-B disease) (Hum. Genet., 93(2), 109-114, 1994).
(§2) As a control substance, 0.5 mM N-(n-butyl)-deoxygalactonojirimycin (NB-DGJ: The Journal of Biological Chemistry, 269, 27108-27114 (1994)) was used, and the substance 18 of the present invention was used in an amount of 0.2 μM.
(§3) Specifically, after culturing the model cell for 4 days using a cell culture medium (10% FCS DMEM) containing the substance 18 of the present invention, the resulting cells were recovered and diluted such that the amount of protein in the suspension became a predetermined level, and then enzyme activity in the diluted suspension was measured. Using 4-methylumbelliferyl-β-D-galactopyranoside as the fluorescent substrate, the enzyme activity during 30 minutes was measured at 37° C.

[2] = molecular target: T2, human mutant β-galactosidase R201H (Homo sapiens, UniProt P16278, R201H)
T2 construct: expressed in transfected cells; host or cells: SV40-immortalized skin fibroblasts of a β-galactosidase-deficient knockout mouse
T2 sequence (P16278 29-677 R201H): T1 sequence (P16278 29-677 R201C) with C173H
Excerpt: as §1, §2, §3

[3] = molecular target: T3, human mutant β-galactosidase W273L (Homo sapiens, UniProt P16278, W273L)
T3 construct: expressed in transfected cells; host or cells: SV40-immortalized skin fibroblasts of a β-galactosidase-deficient knockout mouse
T3 sequence (P16278 29-677 W273L): T1 sequence (P16278 29-677 R201C) with C173R, W245L
Excerpt: as §1, §2, §3

enzyme activity, Control ([1]; transferred gene R201C, control substance 0.5 mM NB-DGJ) | enzyme activity, Control ([2]; transferred gene R201H, control substance 0.5 mM NB-DGJ) | enzyme activity, Control ([3]; transferred gene W273L, control substance 0.5 mM NB-DGJ) | Compound | enzyme activity increased in comparison with the control ([1]; R201C, 0.2 μM) [%] | Relative ratio (×100%) ([1]; R201C, substance 18 vs control) | enzyme activity ([1]; transferred gene R201C, 0.2 μM, 4 days) | enzyme activity increased in comparison with the control ([2]; R201H, 0.2 μM) [%] | Relative ratio (×100%) ([2]; R201H, substance 18 vs control) | enzyme activity ([2]; transferred gene R201H, 0.2 μM, 4 days) | enzyme activity increased in comparison with the control ([3]; W273L, 0.2 μM) [%] | Relative ratio (×100%) ([3]; W273L, substance 18 vs control) | enzyme activity ([3]; transferred gene W273L, 0.2 μM, 4 days)
20.16 | 19.28 | 11.83 | CCCCN1C[C@H](O)[C@@H](O)[C@@H](O)[C@H]1CO [Control, N-(n-butyl)-deoxygalactonojirimycin, reference compound] |  |  |  |  |  |  |  |  | 
 |  |  | CCCCCCCCN[C@@H]1C=C(CO)[C@H](O)C(O)[C@@H]1O (stereo partly drawn) [Substance 18, N-octyl-5a-carba-α-L-arabino-hexo-5(5a)-enopyranosylamine] | ≥ 150 | 2.43 ×100% | 48.88 | ≥ 150 | 4.46 ×100% | 86.05 | ≥ 150 | 1.50 ×100% | 17.71

Source: patent US8211945B2, “Carba-sugar amine derivative and glycolipid metabolic disorder treating agent containing the same as active ingredient” (Seikagaku Corporation, priority 2001, dated 2012)
